Reference: patent US7785879B1, “Pregnane X receptor compositions, crystals and uses thereof” (Schering Corporation, priority 2005, dated 2010)

What was measured:
PXR-LBD-L10-SRC = biological target: T1, PXR-LBD-L10-SRC (Homo sapiens, UniProt O75469); assay: Temperature-dependent circular dichroism, stabilization of PXR-LBD-L10-SRC; details: 25 uM compound
T1 sequence (O75469 with tags, fused parts or gaps): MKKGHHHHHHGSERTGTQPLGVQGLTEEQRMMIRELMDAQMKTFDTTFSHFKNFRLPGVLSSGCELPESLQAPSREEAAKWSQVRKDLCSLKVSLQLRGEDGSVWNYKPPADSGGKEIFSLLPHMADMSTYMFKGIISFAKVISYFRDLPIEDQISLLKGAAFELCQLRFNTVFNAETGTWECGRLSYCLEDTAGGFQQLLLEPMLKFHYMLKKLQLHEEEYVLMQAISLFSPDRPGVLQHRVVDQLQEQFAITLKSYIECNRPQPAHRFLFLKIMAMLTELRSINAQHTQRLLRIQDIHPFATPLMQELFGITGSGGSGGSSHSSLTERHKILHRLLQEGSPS
Experimental: (§1) The CD is a function of wavelength.
(§2) PXR-LBD-L10-SRC was expressed and purified essentially as set forth above. […] Stabilization of PXR-LBD-L10-SRC in the presence of various substances was measured by temperature-dependent circular dichroism. PXR-LBD-L10-SRC was assayed under the following conditions:
(§3) Buffer: 25 mM Hepes, pH 7.9, 150 mM NaCl, 5% glycerol, 10 mM BME,
(§4) heating ramp at 2° C./min
(§5) temperature range: 30-80° C.

PXR = biological target: T2, PXR (Homo sapiens, UniProt O75469); details: Table 2; read-out: reported Kd; cited from earlier work
T2 sequence (O75469 1-434): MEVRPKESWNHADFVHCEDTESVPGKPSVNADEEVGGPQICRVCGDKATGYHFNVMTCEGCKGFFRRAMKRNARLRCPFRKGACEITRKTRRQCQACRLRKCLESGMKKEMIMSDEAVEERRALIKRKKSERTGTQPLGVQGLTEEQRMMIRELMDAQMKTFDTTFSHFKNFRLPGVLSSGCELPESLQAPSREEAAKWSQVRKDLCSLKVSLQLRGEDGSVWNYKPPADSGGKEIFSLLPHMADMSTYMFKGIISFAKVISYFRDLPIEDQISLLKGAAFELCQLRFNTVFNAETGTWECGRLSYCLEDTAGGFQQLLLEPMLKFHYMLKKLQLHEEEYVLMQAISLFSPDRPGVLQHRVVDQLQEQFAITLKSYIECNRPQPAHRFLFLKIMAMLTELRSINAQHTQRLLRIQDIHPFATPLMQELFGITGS

[1] = biological target: T3, human PXR-LBD-L10-SRC (SEQ ID NO: 24) (Homo sapiens, UniProt O75469); assay: Ligand binding assay (radioligand, filter plate); details: conclusion from the radioligand binding tables
T3 sequence (O75469 with tags, fused parts or gaps): T1 sequence (O75469 with tags, fused parts or gaps)
Experimental: Chemilluminescence can be detected, for example, in a scintillation counter (Packard Top-counter). Specifically, the bound complex can be contacted with scintillant and then analyzed for the occurrence of scintillation.
After one hour of incubation at room temperature, the mixture was transferred to an imobilon multiScreen filter plate (Millipore). The plate was washed five times with PBS and dried under vacuum. The dried plate was added Opti-Fluor Scitillation cocktail before counting in a Parkard Top-counter.

PXR (PXR-LBD-L10-SRC) = biological target: T4, PXR (PXR-LBD-L10-SRC) (Homo sapiens, UniProt O75469); assay: Temperature-dependent circular dichroism, stabilization of PXR-LBD-L10-SRC; details: human, pH 7.9
T4 sequence (O75469 with tags, fused parts or gaps): T1 sequence (O75469 with tags, fused parts or gaps)
Experimental: as §1, §2, §3, §4, §5

Compound	Tm (PXR-LBD-L10-SRC; 2.5 μM protein, 225 nm, apo enzyme Tm 52.9 ± 0.05) [C]	ΔTm (PXR-LBD-L10-SRC; vs PXR-LBD-L10-SRC apo enzyme) [C]	Kd (PXR-LBD-L10-SRC; from CD thermal denaturation) [nM]	Kd (PXR) [nM]	binding activity of PXR [1]	ΔTm at 25 µM (PXR (PXR-LBD-L10-SRC)) [°C]
Clc1ccccc1C(c1ccccc1)(c1ccccc1)n1ccnc1 [Clotrimazole]	58.5	5.6	200	300	significant	–
O=C1C(CC[S+]([O-])c2ccccc2)C(=O)N(c2ccccc2)N1c1ccccc1 (stereo not drawn) [sulfopyrole]	–	–	–	–	–	2.3
